Source: ChEMBL document CHEMBL3988442, “University of Dundee, Small-Polar-MMV Screening Library” (2021)

What follows are compounds tested on Schistosoma mansoni (assay: High throughput screening of compounds against Schistosoma mansoni motility).
Type: functional
Set-up: dose or concentration left out as unconfirmed
In the case of CCCNC(=O)CNC(=O)CCc1ccccc1Br, the “Percent Effect” value is reported as 24.36%. In the case of O=C1NCCCCC1Sc1nnc(C2CC2)n1C1CC1 (stereo unspecified), the “Percent Effect” value is reported as -44.06%. CCc1cnc2c(c1NCc1ccncc1)c(=O)n(C)c(=O)n2C was tested, and the “Percent Effect” value was -33.12%. With COCCNC(=O)Cn1nc(C(C)C)c2cnn(C(C)(C)C)c2c1=O the “Percent Effect” value was -20.39%. For O=C(c1cn(-c2cc(N3CCOCC3)ncn2)cn1)N1CCSCC1, the “Percent Effect” value was -64.76%. In the case of O=C(c1cn(-c2cc(N3CCSCC3)ncn2)cn1)N1CCSCC1, the “Percent Effect” value is reported as -48.35%. With Cc1ccc(N2CCN(C(=O)COc3nccc(C)n3)CC2)nn1 the “Percent Effect” value was -46.68%. In the case of O=C(Nc1nc2c(s1)CN(S(=O)(=O)C1CC1)CC2)c1c(F)cccc1F, the “Percent Effect” value is reported as 15.1%. With O=S(=O)(c1cccnc1)N1CCN(CCn2ccnc2)CC1 the “Percent Effect” value was -24.98%. Cc1cccc(CS(=O)(=O)NCC(O)Cc2ccccc2)c1 (stereo unspecified) was tested, and the “Percent Effect” value was 8.547%. COc1cccc(S(=O)(=O)NC2CNC(=O)C2)c1 (stereo unspecified) was tested, and the “Percent Effect” value was -3.901%. For Cn1cnnc1S(=O)(=O)C1CCN(S(=O)(=O)c2ccc(F)c(Cl)c2)CC1, the “Percent Effect” value was -43.49%. In the case of O=S1(=O)CCCN1Cc1coc(-c2cccs2)n1, the “Percent Effect” value is reported as -11.58%. For O=C(NCc1ccoc1)Nc1ccc(CN2CCOC2=O)cc1, the “Percent Effect” value was -8.505%. CCCNC(=O)C(C)NC(=O)CCc1ccccc1Br (stereo unspecified) was tested, and the “Percent Effect” value was 31.68%. In the case of Cc1cnc(C(=O)N(CCN(C)C)Cc2ccc(Cl)cc2)cn1, the “Percent Effect” value is reported as 17.37%. In the case of COCCN(Cc1ccc(F)cc1Cl)C(=O)c1cccc[n+]1[O-], the “Percent Effect” value is reported as -17.57%. With O=C(CSc1ccc2c(c1)OCCO2)NS(=O)(=O)C1CCCCC1 the “Percent Effect” value was 7.796%. In the case of CCc1noc(C(C)N(C)CC(=O)Nc2c(C)cccc2C)n1 (stereo unspecified), the “Percent Effect” value is reported as -71%. With Cc1ccc(C(=O)NC(CN2CCCC2=O)c2ccccc2)c(=O)[nH]1 (stereo unspecified) the “Percent Effect” value was -58.7%. In the case of Cc1ccc(C(=O)NC(C)CN2CCCC2=O)c(=O)[nH]1 (stereo unspecified), the “Percent Effect” value is reported as -45.23%. Cc1nn(C)c(N(C)C)c1CNCC(O)COc1ccc(F)cc1 (stereo unspecified) was tested, and the “Percent Effect” value was -41.92%. For Cc1nc(C(C)(C)NC(=O)Nc2cccc(C#N)c2)no1, the “Percent Effect” value was -35.79%. With Cc1c(Br)cccc1C(=O)NC(C)CN1CCCC1=O (stereo unspecified) the “Percent Effect” value was -4.935%. In the case of CCn1nc2c(cc1=O)CN(Cc1nc3ccccc3c(=O)[nH]1)CC2, the “Percent Effect” value is reported as -62.65%. NC(=O)CCOc1nc(-c2ccccc2Cl)no1 was tested, and the “Percent Effect” value was -31.15%. For Cc1ccn(-c2ccccc2NCc2ccccn2)n1, the “Percent Effect” value was -12.81%. In the case of Cc1ccc(F)c(C(=O)N2CCN(S(C)(=O)=O)[C@@H](C)C2)c1, the “Percent Effect” value is reported as -35.69%. For CC(C)c1nnc2n1CC(CNCc1ccncc1)CC2 (stereo unspecified), the “Percent Effect” value was -34.29%. With CCN(CC)C(=O)c1ccc(-c2ccsc2)nc1C the “Percent Effect” value was -45.64%. With CC1CCN(CCNC(=O)c2cncnc2C(C)C)CC1 the “Percent Effect” value was -17.46%. For O=C(Nc1cccc(CN2CCOC2=O)c1)N1CCOCC1, the “Percent Effect” value was 11.29%. In the case of CC(C)(C(=O)NCC1CC1)c1ccccc1F, the “Percent Effect” value is reported as 9.48%. With CCc1ccc(C(=O)N2CCCC(n3cncn3)C2)o1 (stereo unspecified) the “Percent Effect” value was -35.91%. With COc1ccc(CNCCc2cc(F)cc3c2OCOC3)cc1O the “Percent Effect” value was -21.14%. For Cc1nc(C)n(CC2CN(CC(=O)Nc3cccnc3)CCO2)n1 (stereo unspecified), the “Percent Effect” value was -4.464%. O=C(c1ccc(Br)o1)N1CCCC(n2cncn2)C1 (stereo unspecified) was tested, and the “Percent Effect” value was -24.61%. Cc1ccc(CNCC2CCc3nnc(C(C)C)n3C2)s1 (stereo unspecified) was tested, and the “Percent Effect” value was 21.49%. With COCc1ccccc1C(=O)NCCCN1CCCC1C(=O)N(C)C (stereo unspecified) the “Percent Effect” value was -41.89%. CS(=O)(=O)Cc1cccc(C(=O)NCC2Cc3ccccc3O2)c1 (stereo unspecified) was tested, and the “Percent Effect” value was -78.27%. For Cc1cccc(CNCc2c(C)nn(C)c2N2CCOCC2)n1, the “Percent Effect” value was -105.3%. In the case of Cc1csc(N2CCN(Cc3ccccn3)CC2C)n1 (stereo unspecified), the “Percent Effect” value is reported as -63.75%. With Cc1csc(N2CCN(Cc3cnc(C)s3)CC2C)n1 (stereo unspecified) the “Percent Effect” value was -30.28%. O=C(Cc1cccs1)NC1CCN(c2cccc(F)c2)CC1 was tested, and the “Percent Effect” value was -37.43%. For OCC1CCCN1c1cc(NCCNc2ccccn2)ncn1 (stereo unspecified), the “Percent Effect” value was -56.18%. For CC1CN(C)c2ccccc2CN1C(=O)c1ccc[nH]1 (stereo unspecified), the “Percent Effect” value was -38.54%. For CC(C1CC1)N(C(=O)NCCCn1nc2ccccn2c1=O)C1CC1 (stereo unspecified), the “Percent Effect” value was -46.88%. For Cn1c(CN2CCN(CC3CC3)CC2)nnc1C1CCC1, the “Percent Effect” value was -23.98%. In the case of CC(C)c1nc(CN(C)C2CCN(CC(F)(F)F)C2)no1 (stereo unspecified), the “Percent Effect” value is reported as -30.86%. CCN1CCCC1CN(CCN(C)C)S(=O)(=O)c1ccc(C#N)cc1 (stereo unspecified) was tested, and the “Percent Effect” value was 8.845%. With Cc1n[nH]c(C)c1C1COCCN1C(=O)Cc1cccc(F)c1 (stereo unspecified) the “Percent Effect” value was -66.08%. COCCNS(=O)(=O)c1cccc2c1CN(C(=O)c1ccccc1)CC2 was tested, and the “Percent Effect” value was 10.23%. With CC(c1ccccc1)n1c(SCC(=O)O)nnc1-c1ccccc1Cl (stereo unspecified) the “Percent Effect” value was 15.81%. With CC(CN1CCC2(CC1)c1nc[nH]c1CCN2S(C)(=O)=O)C(F)(F)F (stereo unspecified) the “Percent Effect” value was 2.483%. For COCCN1CCC(CN(CC2CCCO2)C(=O)CCNC(C)=O)CC1 (stereo unspecified), the “Percent Effect” value was -20.27%. With COc1cccc2c1OCC(C(=O)N(C)CCCc1cnn(C)c1)C2 (stereo unspecified) the “Percent Effect” value was -37.39%. In the case of COc1cccc(C(=O)N2CCCC(C(=O)CCc3ccccc3)C2)c1 (stereo unspecified), the “Percent Effect” value is reported as 20.31%. For CC(CN1CCOCC1)NCc1nncn1C1CCCCC1 (stereo unspecified), the “Percent Effect” value was 0.8698%. For O=C(c1cnc(COc2ccccc2)nc1O)N1CCOCC1, the “Percent Effect” value was 1.503%. CN1CCCN(C(=O)c2ccc3c(c2)nc(N2CCOCC2)n3C)CC1 was tested, and the “Percent Effect” value was -26.36%. With CCc1cc(NC2CCN(S(C)(=O)=O)CC2)n2nc(C)c(C)c2n1 the “Percent Effect” value was -49.44%. With Cn1c(Cn2cccn2)nnc1C1CCN(Cc2cccnc2N)CC1 the “Percent Effect” value was -7.123%. O=C(c1cccc(S(=O)(=O)NCCCc2ccco2)c1)N1CCOCC1 was tested, and the “Percent Effect” value was -44.89%. For Cc1nccc(N2CCC(=O)N(Cc3ccc(F)cc3)C(C(C)C)C2)n1 (stereo unspecified), the “Percent Effect” value was -22.84%. With Cc1ccc(C(=O)N2CCC3(CCC(=O)N(CC(N)=O)C3)CC2)c(O)c1 the “Percent Effect” value was -13.5%. CCC1c2cccn2CCN1C(=O)c1ccc2nonc2c1 (stereo unspecified) was tested, and the “Percent Effect” value was -19.69%. For COc1cccc(N2CCN(Cc3ncc[nH]3)CC2=O)c1, the “Percent Effect” value was -64.93%. CSCC[C@H](N)C(=O)NCc1cc2n(n1)CCCN(C1CCCCC1)C2 was tested, and the “Percent Effect” value was -26.84%. For CCOCCNc1nc(C2CCCC2)nc2c1cnn2C, the “Percent Effect” value was -80.64%. In the case of CC(=O)NC(C)CC(=O)NCc1cccnc1Oc1ccccc1C (stereo unspecified), the “Percent Effect” value is reported as 11.59%. For Cc1cc(N2CCC(c3nnc(CN(C)C)n3C3CC3)CC2)ccn1, the “Percent Effect” value was -0.2407%. For Cn1ncc2c(N3CCN(C(N)=O)CC3)nc(C3CCCC3)nc21, the “Percent Effect” value was -18.38%. In the case of CCCN(CCO)C(=O)C1CCC(=O)N(CCc2ccc(Cl)cc2)C1 (stereo unspecified), the “Percent Effect” value is reported as -16.9%. With O=C1CC2(CCN(CCO)CC2)CN1Cc1cc(F)cc(F)c1 the “Percent Effect” value was 8.592%. For CC[C@@]1(O)CCN(C(=O)c2ccc(SC)cc2)C[C@H]1O, the “Percent Effect” value was 20.95%. O=C(CCn1cnnc1)N1CCCC(c2ncc[nH]2)C1 (stereo unspecified) was tested, and the “Percent Effect” value was -28.96%. O=C(CCc1ccc(O)cc1)N1CCC(Cc2ccc(CO)cc2)C1 (stereo unspecified) was tested, and the “Percent Effect” value was 16.91%. For Cc1cc(N(C)Cc2noc(C)n2)n2nc(C)c(C)c2n1, the “Percent Effect” value was -16.19%. With CCS(=O)(=O)N(C)c1ccc(C(=O)N2CCCC(C)C2)cc1 (stereo unspecified) the “Percent Effect” value was -22.28%. In the case of Cc1cnccc1N1CCCN(C(=O)CCCc2cn[nH]c2)CC1, the “Percent Effect” value is reported as -14.12%. Cc1cc(CN2CCN(C(=O)C(C)C)[C@@H]3CS(=O)(=O)C[C@@H]32)ccc1F was tested, and the “Percent Effect” value was 10.81%.
